Reference: patent publication US4103082A, “Aminocyclitol derivatives and process for producing the same” (priority 1975, dated 1978)

Test system: Staphylococcus aureus 6538P
Test: paper disk method, inhibitory zone diameter
Format: cell-based
Conditions: read-out: inhibitory zone diameter; for zone of inhibition at 7.8 µg/mL: 7.8 γ/ml; for zone of inhibition at 15.6 µg/mL: 15.6 γ/ml; for zone of inhibition at 31.2 µg/mL: 31.2 γ/ml; for zone of inhibition at 62.5 µg/mL: 62.5 γ/ml; for zone of inhibition at 125 µg/mL: 125 γ/ml; for zone of inhibition at 250 µg/mL: 250 γ/ml; for zone of inhibition at 500 µg/mL: 500 γ/ml; for zone of inhibition at 1000 µg/mL: 1000 γ/ml; for zone of inhibition at 2000 µg/mL: 2000 γ/ml

| SMILES | zone of inhibition at 7.8 µg/mL [mm] | zone of inhibition at 15.6 µg/mL [mm] | zone of inhibition at 31.2 µg/mL [mm] | zone of inhibition at 62.5 µg/mL [mm] | zone of inhibition at 125 µg/mL [mm] | zone of inhibition at 250 µg/mL [mm] | zone of inhibition at 500 µg/mL [mm] | zone of inhibition at 1000 µg/mL [mm] | zone of inhibition at 2000 µg/mL [mm] |
| --- | --- | --- | --- | --- | --- | --- | --- | --- | --- |
| NC[C@H]1O[C@H](O[C@H]2C[C@@H](O)[C@H](N)C[C@@H]2N)[C@H](N)[C@@H](O)[C@@H]1O [5-Deoxyneamine, 5-deoxyneamine] | 0 | 0 | 0 | 10.3 | 12.4 | 15.3 | 18.5 | 20.4 | 22.5 |
| NC[C@H]1O[C@H](O[C@H]2[C@H](O)C[C@H](N)C[C@@H]2N)[C@H](N)[C@@H](O)[C@@H]1O [6-Deoxyneamine, 6-deoxyneamine] | 0 | 0 | 10 | 12 | 15.7 | 18.1 | 20 | 22.2 | 24.2 |
